Paper PMC3225262, “PeptX: Using Genetic Algorithms to optimize peptides for MHC binding” (BMC Bioinformatics, 2011)
Where no end group is shown, it is not given here.

biological target: HLA-A*02:01 (Homo sapiens, UniProt P04439, D140Y/D185E/D98H/E176V/E277Q/G131W/G231S/I119V/I121R/I166T/I218V/L300P/L318F/N151K/N90K/P208A/P217A/Q86G/Q94H/R138H/R169H/T345S); assay: experimental peptide/MHC binding assay of the consensus peptides; conditions: consensus peptides optimized for HLA-A*02:01; values below 0.5 nM are beyond the range of sensitivity of the assay; tested by co-operation partner (J. Sidney); read-out: experimental peptide/MHC binding affinity expressed as IC50
Excerpt: Since a validation on the basis of existing public experimental data was not possible we were able to find a co-operation partner who tested our consensus peptides for experimental peptide/MHC binding affinity.
The authors thank J. Sidney for testing the IC50 binding affinities of the consensus peptides.

Sequence | IC50
YLAEGLASL [YLAEGLASL] | 1.3 nM
MLWTMVFTV [MLWTMVFTV] | < 0.5 nM

Next, values leading:

IC50 | Sequence
1.1 nM | FLWEVTPTV [FLWEVTPTV]
45 nM | WWWFFWYVW [WWWFFWYVW]
< 0.5 nM | YMMEWMWYV [YMMEWMWYV]
